From ChEMBL document CHEMBL1201862, “PubChem BioAssay data set” (2004)
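A five-concentration, 48-hour dose response in 96-well plates underlies each endpoint, interpolated linearly between surrounding concentrations. Abbreviation: GI50, concentration required for 50% inhibition of growth.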 Activity calls are given as the source filed them. No stated cut-off is given here; in the data, active = GI50 up to about 1.1 µM and inactive = higher.

Experiments:
Experiment in all cases: DTP human tumour cell line panel, 48 h
[1] = test system: UACC-62
[2] = test system: 786-0
[3] = test system: Hs-578T
[4] = test system: LOX IMVI
[5] = test system: HT-29
[6] = test system: EKVX
[7] = test system: OVCAR-4
[8] = test system: HCT-116
[9] = test system: A549
[10] = test system: M14
[11] = test system: OVCAR-5
[12] = test system: PC-3
[13] = test system: T47D
[14] = test system: COLO 205
[15] = test system: KM12
[16] = test system: RXF 393
[17] = test system: Malme-3M
[18] = test system: K562
[19] = test system: NCI-H460
[20] = test system: HCC 2998

Compound	GI50 [1]	GI50 [2]	GI50 [3]	GI50 [4]	GI50 [5]	GI50 [6]	GI50 [7]	GI50 [8]	GI50 [9]	GI50 [10]	GI50 [11]	GI50 [12]	GI50 [13]	GI50 [14]	GI50 [15]	GI50 [16]	GI50 [17]	GI50 [18]	GI50 [19]	GI50 [20]
CC[N+](C)(CC)CCC(O)(c1ccccc1)c1ccccc1	> 100 µM (inactive)	> 100 µM (inactive)	> 100 µM (inactive)	> 100 µM (inactive)	> 100 µM (inactive)	> 100 µM (inactive)	> 100 µM (inactive)	> 100 µM (inactive)	> 100 µM (inactive)	> 100 µM (inactive)	> 100 µM (inactive)	> 100 µM (inactive)	> 100 µM (inactive)	> 100 µM (inactive)	> 100 µM (inactive)	> 100 µM (inactive)	> 100 µM (inactive)	> 100 µM (inactive)	> 100 µM (inactive)	> 100 µM (inactive)
CC(=O)Nc1ccc2c(c1)/C(=N/c1ccc(C(=O)O)cc1)c1ccccc1-2	91.4 µM (inactive)	> 100 µM (inactive)	92.7 µM (inactive)	50.9 µM (inactive)	59.6 µM (inactive)	45.9 µM (inactive)	41 µM (inactive)	> 100 µM (inactive)	> 100 µM (inactive)	99.1 µM (inactive)	> 100 µM (inactive)	83.6 µM (inactive)	28 µM (inactive)	57.3 µM (inactive)	51.4 µM (inactive)	> 100 µM (inactive)	> 100 µM (inactive)	63.1 µM (inactive)	44.7 µM (inactive)	> 100 µM (inactive)
O=C(O)C(F)(OC(F)(F)C(F)(F)C(F)(F)F)C(F)(F)F (stereo not given)	> 100 µM (inactive)	> 100 µM (inactive)	> 100 µM (inactive)	> 100 µM (inactive)	> 100 µM (inactive)	> 100 µM (inactive)	> 100 µM (inactive)	> 100 µM (inactive)	> 100 µM (inactive)	> 100 µM (inactive)	> 100 µM (inactive)	> 100 µM (inactive)	> 100 µM (inactive)	> 100 µM (inactive)	> 100 µM (inactive)	> 100 µM (inactive)	> 100 µM (inactive)	> 100 µM (inactive)	> 100 µM (inactive)	> 100 µM (inactive)
O=[N+]([O-])c1ccc(C(Nc2ccccc2)c2ccc3cccnc3c2O)cc1 (stereo not given)	12.9 µM (inactive)	4.37 µM (inactive)	19.6 µM (inactive)	6.5 µM (inactive)	7.08 µM (inactive)	6.04 µM (inactive)	5.69 µM (inactive)	7.8 µM (inactive)	8.04 µM (inactive)	9.4 µM (inactive)	8.2 µM (inactive)	10.8 µM (inactive)	5.25 µM (inactive)	12.2 µM (inactive)	7.94 µM (inactive)	5.15 µM (inactive)	14.7 µM (inactive)	12.6 µM (inactive)	3.24 µM (inactive)	12.9 µM (inactive)
Cc1ccc(-n2c(Cn3nnc(-c4cccnc4)n3)nn(C3OC(COC(=O)c4ccccc4)C(OC(=O)c4ccccc4)C3OC(=O)c3ccccc3)c2=S)cc1 (stereo not given)	> 100 µM (inactive)	> 100 µM (inactive)	> 100 µM (inactive)	> 100 µM (inactive)	> 100 µM (inactive)	> 100 µM (inactive)	> 100 µM (inactive)	> 100 µM (inactive)	> 100 µM (inactive)	> 100 µM (inactive)	> 100 µM (inactive)	> 100 µM (inactive)	> 100 µM (inactive)	> 100 µM (inactive)	> 100 µM (inactive)	> 100 µM (inactive)	38.4 µM (inactive)	> 100 µM (inactive)	> 100 µM (inactive)	> 100 µM (inactive)
COc1ccc2cc(CNCCCCCCNC(=O)Nc3cccc4ccccc34)ccc2c1	> 100 µM (inactive)	> 100 µM (inactive)	> 100 µM (inactive)	> 100 µM (inactive)	> 100 µM (inactive)	> 100 µM (inactive)	> 100 µM (inactive)	> 100 µM (inactive)	> 100 µM (inactive)	> 100 µM (inactive)	> 100 µM (inactive)	> 100 µM (inactive)	> 100 µM (inactive)	> 100 µM (inactive)	> 100 µM (inactive)	> 100 µM (inactive)	> 100 µM (inactive)	> 100 µM (inactive)	> 100 µM (inactive)	> 100 µM (inactive)
O=C(/C=C/c1csc(-c2ccccc2)n1)NCc1ccc(C(=O)NCCc2ccccc2)cc1	31.8 µM (inactive)	8.63 µM (inactive)	7.05 µM (inactive)	79.4 µM (inactive)	5.09 µM (inactive)	93.5 µM (inactive)	24.5 µM (inactive)	26.9 µM (inactive)	26.7 µM (inactive)	39.8 µM (inactive)	73.3 µM (inactive)	49.4 µM (inactive)	41.2 µM (inactive)	42.1 µM (inactive)	61.1 µM (inactive)	2.7 µM (inactive)	24.3 µM (inactive)	> 100 µM (inactive)	55.3 µM (inactive)	> 100 µM (inactive)
O=C(c1ccc(Cl)cc1)N1N=C(c2ccc(Cl)cc2)CC1(O)c1cc(F)c(Cl)cc1Cl (stereo not given)	21.5 µM (inactive)	18.9 µM (inactive)	39 µM (inactive)	15.2 µM (inactive)	8.95 µM (inactive)	8.59 µM (inactive)	12.8 µM (inactive)	5.66 µM (inactive)	19.6 µM (inactive)	28.7 µM (inactive)	28.2 µM (inactive)	10.4 µM (inactive)	9.95 µM (inactive)	18.4 µM (inactive)	6.97 µM (inactive)	23.9 µM (inactive)	30.6 µM (inactive)	7.24 µM (inactive)	21.7 µM (inactive)	15.5 µM (inactive)
C[N+](C)(C)C(Cc1c[nH]c(=S)[nH]1)C(=O)O (stereo not given)	> 100 µM (inactive)	> 100 µM (inactive)	> 100 µM (inactive)	> 100 µM (inactive)	> 100 µM (inactive)	> 100 µM (inactive)	> 100 µM (inactive)	> 100 µM (inactive)	> 100 µM (inactive)	> 100 µM (inactive)	> 100 µM (inactive)	> 100 µM (inactive)	> 100 µM (inactive)	> 100 µM (inactive)	> 100 µM (inactive)	> 100 µM (inactive)	> 100 µM (inactive)	> 100 µM (inactive)	> 100 µM (inactive)	> 100 µM (inactive)
COc1cccc(CCN2CCN(CCCc3ccccc3)CC2)c1	> 100 µM (inactive)	63.8 µM (inactive)	> 100 µM (inactive)	55.1 µM (inactive)	31.8 µM (inactive)	> 100 µM (inactive)	51.1 µM (inactive)	53.7 µM (inactive)	94.6 µM (inactive)	21.2 µM (inactive)	> 100 µM (inactive)	> 100 µM (inactive)	43.6 µM (inactive)	21.1 µM (inactive)	51.8 µM (inactive)	71 µM (inactive)	55.5 µM (inactive)	32.1 µM (inactive)	78 µM (inactive)	58.3 µM (inactive)
Cc1c2oc3c(C)cc(F)c(C(=O)NC4C(=O)NC(C(C)C)C(=O)N5CCCC5C(=O)N(C)CC(=O)N(C)C(C(C)C)C(=O)OC4C)c3nc-2c(C(=O)NC2C(=O)NC(C(C)C)C(=O)N3CCCC3C(=O)N(C)CC(=O)N(C)C(C(C)C)C(=O)OC2C)c(N)c1=O (stereo not given)	0.0617 µM (active)	0.00512 µM (active)	0.298 µM (active)	0.00255 µM (active)	0.00586 µM (active)	1.75 µM (inactive)	0.711 µM (active)	0.01 µM (active)	0.0148 µM (active)	0.0826 µM (active)	0.214 µM (active)	0.0179 µM (active)	0.101 µM (active)	0.0267 µM (active)	0.00475 µM (active)	0.106 µM (active)	0.00149 µM (active)	< 0.001 µM (active)	0.00179 µM (active)	0.109 µM (active)
COC(=O)C(CCC(=O)CCl)N1C(=O)c2ccccc2C1=O (stereo not given)	10.8 µM (inactive)	4.05 µM (inactive)	12.6 µM (inactive)	1.57 µM (inactive)	9.64 µM (inactive)	19.9 µM (inactive)	14.8 µM (inactive)	5.07 µM (inactive)	17.7 µM (inactive)	5.27 µM (inactive)	15.9 µM (inactive)	12.9 µM (inactive)	6.25 µM (inactive)	15.6 µM (inactive)	20.2 µM (inactive)	2.39 µM (inactive)	4.57 µM (inactive)	2.38 µM (inactive)	12.2 µM (inactive)	8.18 µM (inactive)
O=C(CSc1nc2ccc(I)cc2c(=O)n1Cc1ccccc1)NN1C(=O)c2ccccc2C1=O	24.9 µM (inactive)	6.04 µM (inactive)	6.47 µM (inactive)	15 µM (inactive)	24.8 µM (inactive)	12.9 µM (inactive)	12.2 µM (inactive)	16.7 µM (inactive)	18 µM (inactive)	28.5 µM (inactive)	26.2 µM (inactive)	4.09 µM (inactive)	15.8 µM (inactive)	25.5 µM (inactive)	31.2 µM (inactive)	8.3 µM (inactive)	18.2 µM (inactive)	31 µM (inactive)	22.9 µM (inactive)	28.8 µM (inactive)
